Measured values as given in patent US20110245284A1, “Alkoxy- and Alkylthio-Substituted Anilinopyrimidines” (Bayer CropScience AG, priority 2008, published 2011).

Tests used:
Venturia inaequalis = assay: Venturia test (apple) / protective; assay type: in vivo; settings: 240 h, active compound concentration 100 ppm, evaluation 10 days after inoculation, read-out: efficacy
Experimental: After the spray coating has dried on, the plants are inoculated with an aqueous conidia suspension of the apple scab pathogen Venturia inaequalis and then remain for 1 day in an incubation cabinet at about 20° C. and 100% relative atmospheric humidity.

Alternaria solani = assay: Alternaria test (tomato) / protective; assay type: in vivo; settings: 72 h, active compound concentration 100 ppm, evaluation 3 days after inoculation, read-out: efficacy
Experimental: The plants are then placed in an incubation cabinet at about 20° C. and 100% relative atmospheric humidity.

Leptosphaeria nodorum = Leptosphaeria nodorum test (wheat) / protective; assay type: in vivo; settings: Parastagonospora nodorum, active compound concentration 500 ppm, evaluation 7-9 days after inoculation, read-out: efficacy
Experimental: Thereafter, the plants are placed in a greenhouse at 90% relative atmospheric humidity and a temperature of 22° C.

Pyrenophora teres = Pyrenophora teres test (barley) / protective; assay type: in vivo; settings: 192 h, active compound concentration 500 ppm, evaluation 8 days after inoculation, read-out: efficacy
Experimental: After the spray coating has dried on, the plants are sprayed with a spore suspension of Pyrenophora teres. The plants remain in an incubation cabinet for 48 hours at 20° C. and 100% relative atmospheric humidity.

Sphaerotheca fuliginea = assay: Sphaerotheca test (cucumber) / protective; assay type: in vivo; settings: Podosphaera fuliginea, 168 h, active compound concentration 500 ppm, evaluation 7 days after inoculation, read-out: efficacy
Experimental: The plants are subsequently placed in a greenhouse at 70% relative atmospheric humidity and a temperature of 23° C.

[1] = logP by LC-MS on reversed-phase columns (C 18), method [b], acidic range pH 2.7; assay type: physicochemical; settings: pH 2.7, log p
Experimental: (§1) The logP values were determined in accordance with EEC Directive 79/831 Annex V.A8 by HPLC (High Performance Liquid Chromatography) on reversed-phase columns (C 18), using the methods below:
[b] The LC-MS determination in the acidic range is carried out at pH 2.7 using the mobile phases 0.1% aqueous formic acid and acetonitrile (contains 0.1% formic acid), linear gradient from 10% acetonitrile to 95% acetonitrile.

[2] = logP by LC-MS on reversed-phase columns (C 18), method [c], neutral range pH 7.8; assay type: physicochemical; settings: pH 7.8
Experimental: as §1
[c] The LC-MS determination in the neutral range is carried out at pH 7.8 using the mobile phases 0.001 molar aqueous ammonium bicarbonate solution and acetonitrile, linear gradient from 10% acetonitrile to 95% acetonitrile.

Pyricularia oryzae = assay: whole plant or invertebrate; assay type: in vivo; settings: 120 h, read-out: efficacy
Rhizoctonia solani = assay: Rhizoctonia test (rice) / protective; assay type: in vivo; settings: 96 h, active compound concentration 250 ppm, evaluation 4 days after inoculation, read-out: efficacy
Cochliobolus miyabeanus = assay: Cochliobolus test (rice) / protective; settings: Bipolaris oryzae, in Oryza sativa, 96 h, read-out: efficacy
Experimental: Cochliobolus Test (Rice)/Protective • Solvent: 28.5 parts by weight of acetone • Emulsifier: 1.5 parts by weight of alkylaryl polyglycol ether
1 day after the treatment, the plants are inoculated with an aqueous spore suspension of Cochliobolus miyabeanus. The plants are then placed in a greenhouse at 100% relative atmospheric humidity and 25° C.
Evaluation is carried out 4 days after the inoculation.

SMILES | pest or weed control at 100 ppm (Venturia inaequalis) [%] | pest or weed control at 100 ppm (Alternaria solani) [%] | pest or weed control at 500 ppm (Leptosphaeria nodorum) [%] | pest or weed control at 500 ppm (Pyrenophora teres) [%] | pest or weed control at 500 ppm (Sphaerotheca fuliginea) [%] | chromatographic logP [1] | chromatographic logP [2] | pest or weed control at 250 ppm (Pyricularia oryzae) [%] | pest or weed control at 250 ppm (Rhizoctonia solani) [%] | pest or weed control at 250 ppm (Cochliobolus miyabeanus) [%]
CCSCc1cccc(Nc2ncc(Cl)c(NC(C)C)n2)c1 [Example 33] | ≥ 70 | ≥ 70 | ≥ 70 | ≥ 70 | ≥ 70 | 2.61 | – | – | – | –
CCC(C)[S+]([O-])C(C)c1cccc(Nc2ncc(Cl)c(NC3CC3)n2)c1 (stereo not drawn) [Example 164] | ≥ 70 | ≥ 70 | ≥ 70 | ≥ 70 | ≥ 70 | 2 | 2.79 | – | – | –
COCCOc1cccc(Nc2ncc(Cl)c(NC3CCC3)n2)c1 [Example 66] | ≥ 70 | ≥ 70 | ≥ 70 | ≥ 70 | – | 2.12 | – | ≥ 80 | – | –
CC[S+]([O-])c1cccc(Nc2ncc(C(F)(F)F)c(NC3CCC3)n2)c1 (stereo not drawn) [Example 119] | ≥ 70 | ≥ 70 | ≥ 70 | ≥ 70 | ≥ 70 | 2.61 | 2.81 | – | – | –
COCc1cccc(Nc2ncc(Br)c(NC(C)C)n2)c1 [Example 70] | – | – | ≥ 70 | – | – | 1.92 | – | ≥ 80 | ≥ 80 | ≥ 80
CCCS(=O)(=O)c1cccc(Nc2ncc(Cl)c(NC3CCC3)n2)c1 [Example 103] | – | – | ≥ 70 | – | – | 2.6 | 3.27 | – | ≥ 80 | ≥ 80
CCS(=O)(=O)c1cccc(Nc2ncc(C(F)(F)F)c(NC3CCC3)n2)c1 [Example 118] | ≥ 70 | ≥ 70 | ≥ 70 | ≥ 70 | ≥ 70 | 3.07 | 3.23 | – | – | –
COCCOc1cccc(Nc2ncc(C(F)(F)F)c(NC3CCC3)n2)c1 [Example 71] | – | – | ≥ 70 | – | – | 3.33 | – | ≥ 80 | ≥ 80 | ≥ 80
CCS(=O)(=O)c1cccc(Nc2ncc(Cl)c(NC3CC3)n2)c1 [Example 113] | ≥ 70 | ≥ 70 | ≥ 70 | ≥ 70 | ≥ 70 | 1.87 | 2.48 | – | – | –
COCCCSc1cccc(Nc2ncc(Cl)c(NC3CC3)n2)c1 [Example 201] | – | – | ≥ 70 | – | – | 2.59 | 3.77 | ≥ 80 | ≥ 80 | ≥ 80
CSC(C)c1cccc(Nc2ncc(Br)c(NC3CCC3)n2)c1 (stereo not drawn) [Example 13] | ≥ 70 | ≥ 70 | ≥ 70 | ≥ 70 | ≥ 70 | 3.07 | – | ≥ 80 | – | –
CCS(=O)(=O)c1cccc(Nc2ncc(Br)c(NC3CCC3)n2)c1 [Example 111] | ≥ 70 | ≥ 70 | ≥ 70 | – | ≥ 70 | 2.36 | 3.06 | – | – | –
CCC1CC1Nc1nc(Nc2cccc(COC)c2)ncc1Cl (stereo not drawn) [Example 108] | – | – | ≥ 70 | – | – | 2.46 | – | ≥ 80 | – | ≥ 80
CCS(=O)(=O)C(C)c1cccc(Nc2ncc(Cl)c(NC3CC3)n2)c1 (stereo not drawn) [Example 75] | – | – | ≥ 70 | ≥ 70 | ≥ 70 | 2.54 | – | ≥ 80 | – | ≥ 80
